# System: C57BL/6j bone marrow derived dendritic cells
# Assay: Seahorse extracellular acidification rate (ECAR) assay in glucose-free media
# Assay type: cell-based
# Settings: PFK15 200 nM, 4 hours
# Method: F16BP particles rescues glycolysis even in the presence of glycolytic inhibitor PFK15. In order to test if F16BP can indeed functionally accelerate glycolysis in the presence of low glucose environment, extracellular acidification rate (ECAR), which measures changes in extracellular pH due to lactic acid production (a byproduct of glycolysis) was determined using Seahorse assays. In this case, although, C57BL/6j bone marrow derived dendritic cells (DCs, another type of phagocytic cell) were utilized, it is believed that CAR macrophages will behave similarly. Specifically, DCs were treated with PFK15 (200 nM), or F16BP particles (0.1 mg/mL) or PFK15+F16BP particles. After 4 hours of treatment with formulations, changes in pH using ECAR were recorded in glucose-free media. In a step-wise manner cells were added with oligomycin to measure ATP production and proton leak, Carbonyl cyanide-4 (trifluoromethoxy) phenylhydrazone (FCCP—disrupts mitochondrial membrane potential) to measure maximal respiration, rotenone and antimycinA (shuts down mitochondrial respiration) to measure spare capacity.
compound,measurement,value
O=C(/C=C/c1ccc2ccccc2n1)c1ccncc1 [PFK15],ECAR values relative to no treatment control,even lower than no treatment control

# Reference: patent US20230265205A1, “METABOLISM-BASED CHIMERIC ANTIGEN RECEPTORS AND METHODS OF TREATMENT” (Arizona Board of Regents on behalf of Arizona State …, priority 2020, published 2023)
